Patent publication US6849612B2, “Oligonucleotide modulation of cell adhesion” (ISIS Pharmaceuticals, Inc., priority 1993, dated 2005)
Strand notation (5' to 3'): a small letter for the sugar, then the base; units joined by * are phosphorothioate-linked, units joined directly phosphodiester-linked; [ ] holds rarer units or linkages, { } end groups; capitals alone tell only the bases. d = 2'-deoxy (DNA)

What was measured:
ELAM-1 = assay: ELISA of ELAM-1 expression in TNF-stimulated HUVEC; format: cell-based, human; details: for ELAM-1 expression (% of control) / IC50: HUVEC; for ELAM-1 expression (% of control): TNF-α […] 4 hours; for IC50: TNF-α, read-out: IC50 for inhibition of ELAM-1 expression (asterisk); for inhibition of ELAM-1 expression: TNF-treated HUVEC
Protocol: (§1) Primary human umbilical vein endothelial (HUVEC) cells, passage 2 to 5, were plated in 96-well plates and allowed to reach confluence. Cells were washed three times with Opti-MEM (GIBCO, Grand Island N.Y.). Cells were treated with increasing concentrations of oligonucleotide diluted in Opti-MEM containing 10 μg/ml DOTMA solution (Bethesda Research Labs, Bethesda, Md.) for 4 hours at 370C. The medium was removed and replaced with EGM-UV (Clonetics, San Diego Calif.) plus oligonucleotide. Tumor necrosis factor α was added to the medium (2.5 ng/ml) and the cells were incubated an additional 4 hours at 37° C.
(§2) ELAM-1 expression was determined by ELISA. Cells were gently washed three times with Dulbecco's phosphate-buffered saline (D-PBS) prewarmed to 37° C. Cells were fixed with 95% ethanol at 4° C. for 20 minutes, washed three times with D-PBS and blocked with 2% BSA in D-PBS. Cells were incubated with ELAM-1 monoclonal antibody BBA-1 (R&D Systems, Minneapolis Minn.) diluted to 0.5 μg/ml in D-PBS containing 2% BSA for 1 hour at 37° C. Cells were washed three times with D-PBS and the bound ELAM-1 antibody detected with biotinylated goat anti-mouse secondary antibody followed by β-galactosidase-conjugated streptavidin as described in Example 1.
ELISA screening of additional antisense oligonucleotides for activity against ELAM-1 gene expression Inhibition of ELAM-1 expression by eighteen antisense phosphorothioate oligonucleotides was determined using the ELISA assay as described in Example 12.

VCAM-1 = assay: ELISA of VCAM-1 expression in TNF-stimulated HUVEC; format: cell-based, human; details: for VCAM-1 EXPRESSION 30 nM oligo (VCAM-1 expression is given as % of control) / VCAM-1 EXPRESSION 50 nM oligo (VCAM-1 expression is given as % of control): TNF-α 16 hours; for IC50: TNF-α, read-out: IC50 for inhibition of VCAM-1 expression (asterisk)
Protocol: as §1, §2
Inhibition of VCAM-1 expression by fifteen antisense phosphorothioate oligonucleotides was determined using the ELISA assay approximately as described in Example 12, except that cells were stimulated with TNF-àfor 16 hours and VCAM-1 expression was detected by a VCAM-1 specific monoclonal antibody (R & D Systems, Minneapolis, Minn.) used at 0.5 μg/ml.

| Substance | ELAM-1 expression (% of control) (ELAM-1; 30 nM oligo) | ELAM-1 expression (% of control) (ELAM-1; 50 nM oligo) | IC50 (ELAM-1) | VCAM-1 EXPRESSION 30 nM oligo (VCAM-1 expression is given as % of control) (VCAM-1) | VCAM-1 EXPRESSION 50 nM oligo (VCAM-1 expression is given as % of control) (VCAM-1) | IC50 (VCAM-1) | inhibition of ELAM-1 expression (ELAM-1) |
| --- | --- | --- | --- | --- | --- | --- | --- |
| ISIS 4720: phosphorothioate, human ELAM-1 3′-UTR 3093-3112, SEQ ID NO 59, GGAATGCAAAGCACATCCAT (antisense dG*dG*dA*dA*dT*dG*dC*dA*dA*dA*dG*dC*dA*dC*dA*dT*dC*dC*dA*dT) | 63.5 % of control | 70.6 % of control |  |  |  |  |  |
| ISIS 4729: phosphorothioate, human ELAM-1 3′-UTR 2063-2082, SEQ ID NO 57, GGGCCAGAGACCCGAGGAGA (antisense dG*dG*dG*dC*dC*dA*dG*dA*dG*dA*dC*dC*dC*dG*dA*dG*dG*dA*dG*dA) | 49.4 % of control | 46.3 % of control | ≤ 50 nM |  |  |  |  |
| ISIS 2674: P=S, human ELAM-1 3′-UTR 2617-2637, SEQ ID NO 31, CACAATCCTTAAGAACTCTTT (antisense dC*dA*dC*dA*dA*dT*dC*dC*dT*dT*dA*dA*dG*dA*dA*dC*dT*dC*dT*dT*dT) | 33.5 % of control | 28.1 % of control | ≤ 50 nM |  |  |  |  |
| ISIS 3800: phosphorothioate, human VCAM-1 3′-UTR 2620-2639, SEQ ID NO 70, GCAATCTTGCTATGGCATAA (DNA, all phosphorothioate, methylation of C not given here) |  |  |  | 64.4 % of control | 47.7 % of control | ≤ 50 nM |  |
| ISIS 4719: phosphorothioate, human ELAM-1 3′-UTR 2993-3012, SEQ ID NO 58, ACGTTTGGCCTCATGGAAGT (antisense dA*dC*dG*dT*dT*dT*dG*dG*dC*dC*dT*dC*dA*dT*dG*dG*dA*dA*dG*dT) | 36.8 % of control | 34.7 % of control | ≤ 50 nM |  |  |  |  |
| ISIS 2670: P=S, human ELAM-1 3′-UTR 3717-3736, SEQ ID NO 29, ACCACACTGGTATTTCACAC (antisense dA*dC*dC*dA*dC*dA*dC*dT*dG*dG*dT*dA*dT*dT*dT*dC*dA*dC*dA*dC) | 72.2 % of control | 67.2 % of control |  |  |  |  |  |
| ISIS 4756: phosphorothioate, human ELAM-1 I/E 177-196, SEQ ID NO 54, CCAAAGTGAGAGCTGAGAGA (antisense dC*dC*dA*dA*dA*dG*dT*dG*dA*dG*dA*dG*dC*dT*dG*dA*dG*dA*dG*dA) | 53.9 % of control | 35.7 % of control | ≤ 50 nM |  |  |  |  |
| ISIS 4730: phosphorothioate, human ELAM-1 I/E 3′UTR 2006-2025, SEQ ID NO 56, TCCCCAGATGCACCTGTTT (antisense dT*dT*dC*dC*dC*dC*dA*dG*dA*dT*dG*dC*dA*dC*dC*dT*dG*dT*dT*dT) | 14.1 % of control | 2.3 % of control | ≤ 50 nM |  |  |  |  |
| ISIS 4732: phosphorothioate, human ELAM-1 Coding 1936-1955, SEQ ID NO 55, CTGATTCAAGGCTTTGGCAG (antisense dC*dT*dG*dA*dT*dT*dC*dA*dA*dG*dG*dC*dT*dT*dT*dG*dG*dC*dA*dG) | 68.5 % of control | 55.3 % of control |  |  |  |  |  |
| ISIS 5876: phosphorothioate, human VCAM-1 CODING 2038-2057, SEQ ID NO 67, CTGTGTCTCCTGTCTCCGCT (DNA, all phosphorothioate, methylation of C not given here) |  |  |  | 43.5 % of control | 26.6 % of control | ≤ 50 nM |  |
| ISIS 2686: P=S, human ELAM-1 AUG 148-168, SEQ ID NO 36, TGAAGCAATCATGACTTCAAG (antisense dT*dG*dA*dA*dG*dC*dA*dA*dT*dC*dA*dT*dG*dA*dC*dT*dT*dC*dA*dA*dG) | 51.1 % of control | 46.9 % of control | ≤ 50 nM |  |  |  |  |
| ISIS 5874: phosphorothioate, human VCAM-1 CODING 1032-1052, SEQ ID NO 65, CTTGAACAATTAATTCCACCT (DNA, all phosphorothioate, methylation of C not given here) |  |  |  | 66.5 % of control | 35.3 % of control | ≤ 50 nM |  |
| ISIS 2694: P=S, human ELAM-1 3′-UTR 2933-2953, SEQ ID NO 39, GACAATATACAAACCTTCCAT (antisense dG*dA*dC*dA*dA*dT*dA*dT*dA*dC*dA*dA*dA*dC*dC*dT*dT*dC*dC*dA*dT) | 72.0 % of control | 64.6 % of control |  |  |  |  |  |
| ISIS 4764: phosphorothioate, human ELAM-1 5′-UTR 1-19, SEQ ID NO 52, GAAGTCAGCCAAGAACAGCT (antisense dG*dA*dA*dG*dT*dC*dA*dG*dC*dC*dA*dA*dG*dA*dA*dC*dA*dG*dC*dT) | 70.2 % of control | 50.2 % of control | ≤ 50 nM |  |  |  |  |
| ISIS 2683: P=S, human ELAM-1 AUG 143-163, SEQ ID NO 35, AATCATGACTTCAAGAGTTCT (antisense dA*dA*dT*dC*dA*dT*dG*dA*dC*dT*dT*dC*dA*dA*dG*dA*dG*dT*dT*dC*dT) | 47.9 % of control | 48.5 % of control | ≤ 50 nM |  |  |  |  |
| ISIS 4759: phosphorothioate, human ELAM-1 5′-UTR 64-83, SEQ ID NO 53, ACAGGATCTCTCAGGTGGGT (antisense dA*dC*dA*dG*dG*dA*dT*dC*dT*dC*dT*dC*dA*dG*dG*dT*dG*dG*dG*dT) | 30.0 % of control | 20.2 % of control | ≤ 50 nM |  |  |  |  |
| ISIS 2673: P=S, human ELAM-1 3′-UTR 2656-2676, SEQ ID NO 30, GTATGGAAGATTATAATATAT (antisense dG*dT*dA*dT*dG*dG*dA*dA*dG*dA*dT*dT*dA*dT*dA*dA*dT*dA*dT*dA*dT) | 58.9 % of control | 53.8 % of control |  |  |  |  |  |
| ISIS 2678: P=S, human ELAM-1 3′-UTR 3557-3576, SEQ ID NO 32, ACCTCTGCTGTTCTGATCCT (antisense dA*dC*dC*dT*dC*dT*dG*dC*dT*dG*dT*dT*dC*dT*dG*dA*dT*dC*dC*dT) | 24.9 % of control | 15.3 % of control | ≤ 50 nM |  |  |  |  |
| ISIS 2679: P=S, human ELAM-1 5′-UTR 40-59, SEQ ID NO 33, CTGCTGCCTCTGTCTCAGGT (antisense dC*dT*dG*dC*dT*dG*dC*dC*dT*dC*dT*dG*dT*dC*dT*dC*dA*dG*dG*dT) | 6.4 % of control | 6.0 % of control | ≤ 50 nM |  |  |  | most potent |
| ISIS 2687: P=S, human ELAM-1 5′-UTR 17-36, SEQ ID NO 37, TATAGGAGTTTTGATGTGAA (antisense dT*dA*dT*dA*dG*dG*dA*dG*dT*dT*dT*dT*dG*dA*dT*dG*dT*dG*dA*dA) | 91.1 % of control | 73.8 % of control |  |  |  |  | did not show significant activity |
